Data on one molecule can be found in paper PMC10411619 (Chemical Science, 2023).

This experiment addresses cyt P460 (Nitrosomonas europaea, UniProt Q50927). The experiment in a line: biochemical.

Chain of cyt P460 (Q50927 27-198): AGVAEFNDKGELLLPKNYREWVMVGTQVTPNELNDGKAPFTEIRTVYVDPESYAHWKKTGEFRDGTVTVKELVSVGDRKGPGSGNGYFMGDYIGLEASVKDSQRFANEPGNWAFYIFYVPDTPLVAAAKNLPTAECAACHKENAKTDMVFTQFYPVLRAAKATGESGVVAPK

One may read the Kd as the equilibrium constant for the complex coming apart. `NO` [NH2OH] yielded a dissociation constant Kd of 30 ± 0.7 mM.
